Results reported in paper PMC11284802 (Journal of Medicinal Chemistry, 2024).

Assays:
[1] = Mouse liver microsomal stability; assay type: in vitro ADME; conditions: male, CD-1, mouse, liver microsomes, pH 7.4
[2] = Human liver microsomal CLint; assay type: in vitro ADME; conditions: liver microsomes
[3] = Mouse hepatocyte stability; assay type: in vitro ADME; conditions: male, CD-1, mouse, cryopreserved hepatocytes
[4] = Human hepatocyte stability; assay type: in vitro ADME; conditions: cryopreserved hepatocytes
[5] = test system: phosphorylation of CSNK2 substrate EIF2S2; experiment: Inhibition of EIF2S2 phosphorylation in vitro; assay type: cell-based, human; conditions: A549-ACE2 cells, 1 or 5 μM, 24 h
A549-ACE2 cells = experiment: LDH cytotoxicity assay; assay type: cell-based, human; conditions: concentrations below 10 μM
Plasma stability = assay type: in vitro ADME; conditions: human plasma, 37 °C, 0 and 6 h
EIF2S2 (phospho-Ser2) = experiment: In vivo CSNK2 inhibition; parameters: species or system CD-1 mice; conditions: 10 mg/kg i.p. b.i.d., 36 h, vs vehicle
AKT (phospho-Ser129) = experiment: In vivo CSNK2 inhibition; parameters: species or system CD-1 mice; conditions: 10 mg/kg i.p. b.i.d., 36 h, vs vehicle
DYRK1A [6] = target: T1, DYRK1A (Homo sapiens, UniProt Q13627); experiment: NanoBRET dose-response, off-target kinase; assay type: cell-based; conditions: poor assay window
DAPK2 = DAPK2 (Homo sapiens, UniProt Q9UIK4); experiment: NanoBRET K192 panel; assay type: cell-based; conditions: read-out: NanoBRET K192 % occupancy at 10 μM, DAPK2
Sequence of DAPK2 (Q9UIK4 whole entry): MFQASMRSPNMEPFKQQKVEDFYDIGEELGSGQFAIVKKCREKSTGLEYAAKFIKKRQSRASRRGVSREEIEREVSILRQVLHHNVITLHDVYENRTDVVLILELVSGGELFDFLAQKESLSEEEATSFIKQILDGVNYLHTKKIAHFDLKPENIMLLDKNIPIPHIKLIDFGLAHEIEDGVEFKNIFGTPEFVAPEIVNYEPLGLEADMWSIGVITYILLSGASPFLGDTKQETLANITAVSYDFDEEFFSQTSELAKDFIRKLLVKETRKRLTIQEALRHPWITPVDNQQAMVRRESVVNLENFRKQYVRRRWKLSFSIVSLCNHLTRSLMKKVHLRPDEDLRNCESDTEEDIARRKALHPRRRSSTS

HIPK4 = target: T2, HIPK4 (Homo sapiens, UniProt Q8NE63); experiment: NanoBRET K192 panel; assay type: cell-based; conditions: read-out: NanoBRET K192 % occupancy at 10 μM, HIPK4
T2 sequence (Q8NE63 1-616): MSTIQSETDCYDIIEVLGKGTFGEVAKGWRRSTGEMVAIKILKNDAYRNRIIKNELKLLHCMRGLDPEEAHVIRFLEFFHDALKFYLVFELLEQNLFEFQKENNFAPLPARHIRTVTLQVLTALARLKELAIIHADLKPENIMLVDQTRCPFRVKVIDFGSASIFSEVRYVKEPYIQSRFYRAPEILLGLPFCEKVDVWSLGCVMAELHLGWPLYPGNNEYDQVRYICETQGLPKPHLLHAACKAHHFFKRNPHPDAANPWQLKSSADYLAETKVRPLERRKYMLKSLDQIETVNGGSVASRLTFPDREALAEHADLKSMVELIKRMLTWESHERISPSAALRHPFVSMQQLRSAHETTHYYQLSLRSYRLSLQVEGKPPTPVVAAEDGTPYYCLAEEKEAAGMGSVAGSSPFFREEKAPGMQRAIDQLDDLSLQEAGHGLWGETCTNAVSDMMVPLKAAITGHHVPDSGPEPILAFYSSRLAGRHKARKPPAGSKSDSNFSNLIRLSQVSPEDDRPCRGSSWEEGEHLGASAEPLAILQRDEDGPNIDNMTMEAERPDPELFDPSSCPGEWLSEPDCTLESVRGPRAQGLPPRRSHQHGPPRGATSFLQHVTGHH

CLK4 = CLK4 (Homo sapiens, UniProt Q9HAZ1); experiment: NanoBRET K192 panel; assay type: cell-based; conditions: read-out: NanoBRET K192 % occupancy at 10 μM, CLK4
Sequence of CLK4 (Q9HAZ1 whole entry): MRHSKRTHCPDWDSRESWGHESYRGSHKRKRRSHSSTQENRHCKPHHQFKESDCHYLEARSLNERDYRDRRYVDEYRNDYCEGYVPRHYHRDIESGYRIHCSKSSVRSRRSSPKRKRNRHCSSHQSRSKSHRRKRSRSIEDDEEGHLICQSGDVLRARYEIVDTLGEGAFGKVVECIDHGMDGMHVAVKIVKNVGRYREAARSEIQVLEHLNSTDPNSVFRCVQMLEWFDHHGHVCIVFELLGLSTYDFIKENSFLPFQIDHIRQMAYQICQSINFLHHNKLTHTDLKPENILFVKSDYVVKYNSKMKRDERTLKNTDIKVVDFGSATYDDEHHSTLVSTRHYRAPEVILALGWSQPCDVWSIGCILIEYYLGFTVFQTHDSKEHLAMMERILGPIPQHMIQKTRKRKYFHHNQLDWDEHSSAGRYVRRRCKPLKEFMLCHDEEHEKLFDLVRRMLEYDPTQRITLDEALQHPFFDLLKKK

PHKG1 = PHKG1 (Homo sapiens, UniProt Q16816); experiment: NanoBRET K192 panel; assay type: cell-based; conditions: read-out: NanoBRET K192 % occupancy at 10 μM, PHKG1
Sequence of PHKG1 (Q16816 whole entry): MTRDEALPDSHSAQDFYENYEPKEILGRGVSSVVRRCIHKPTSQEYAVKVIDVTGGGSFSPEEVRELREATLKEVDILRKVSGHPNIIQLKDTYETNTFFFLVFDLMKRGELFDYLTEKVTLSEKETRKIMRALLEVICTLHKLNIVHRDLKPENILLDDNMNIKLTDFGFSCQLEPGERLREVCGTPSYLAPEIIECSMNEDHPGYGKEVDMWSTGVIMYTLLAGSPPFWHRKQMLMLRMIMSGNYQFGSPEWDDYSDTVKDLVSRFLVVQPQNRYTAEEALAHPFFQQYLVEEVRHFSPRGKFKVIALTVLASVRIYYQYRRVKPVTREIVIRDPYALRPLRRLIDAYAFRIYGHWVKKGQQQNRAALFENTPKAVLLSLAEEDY

DYRK1A [7] = target: T1, DYRK1A; experiment: NanoBRET K192 panel; assay type: cell-based; conditions: read-out: NanoBRET K192 % occupancy at 10 μM, DYRK1A
[8] = test system: mouse hepatitis virus (MHV); experiment: MHV assay; assay type: cell-based

CC(=O)Nc1cccc(Nc2cc(NC3CC3)n3ncc(C#N)c3n2)c1 [Compound 3, N-(3-((3-Cyano-7-(cyclopropylamino)pyrazolo[1,5-a]pyrimidin-5-yl)amino)phenyl)acetamide]
remaining at 0.5 h, 5 μM [1]: 22%
CLint scaled at 1 h [2]: 25 mL/min/kg
CLint scaled at 2 h, 1 µM [3]: 520 mL/min/kg
CLint scaled at 2 h, 1 µM [4]: 58 mL/min/kg

N#Cc1cnn2c(NC3CC3)cc(Nc3cccc(-n4cnnc4)c3)nc12 [Compound 14, 5-((3-(4H-1,2,4-Triazol-4-yl)phenyl)amino)-7-(cyclopropylamino)pyrazolo[1,5-a]pyrimidine-3-carbonitrile]
remaining at 0.5 h, 5 μM [1]: 74%
CLint scaled at 1 h [2]: 7.6 mL/min/kg
CLint scaled at 2 h, 1 µM [3]: 160 mL/min/kg
CLint scaled at 2 h, 1 µM [4]: 16 mL/min/kg

CCN(CCN)c1ccc(Nc2cc(NC3CC3)n3ncc(C#N)c3n2)cc1-n1cnnc1 [Compound 53, 5-((4-((2-Aminoethyl)(ethyl)amino)-3-(4H-1,2,4-triazol-4-yl)phenyl)amino)-7-(cyclopropylamino)pyrazolo[1,5-a]pyrimidine-3-carbonitrile]
phosphorylation levels of CSNK2 substrate EIF2S2 [5]: reduction in phosphorylation levels
cell viability by LDH assay (A549-ACE2 cells): No decrease in cell viability
plasma stability (Plasma stability): stable in plasma
phosphorylation of Ser2 of EIF2S2 in mouse lung (EIF2S2 (phospho-Ser2)): no statistically significant reduction
phosphorylation of Ser129 of AKT in mouse lung (AKT (phospho-Ser129)): no statistically significant reduction
DYRK1A NanoBRET dose-response occupancy (DYRK1A [6]): d Poor assay window observed but no occupancy observed up to 3 μM. n.d. = not determined.
receptor occupancy at 10 µM (DAPK2): 50 to 75%
receptor occupancy at 10 µM (HIPK4): 50 to 75%
receptor occupancy at 10 µM (CLK4): 50 to 75%
receptor occupancy at 10 µM (PHKG1): 50 to 75%
receptor occupancy at 10 µM (DYRK1A [7]): 50 to 75%

CN[C@H]1CCCN(c2ccc(Nc3cc(NC4CC4)n4ncc(C#N)c4n3)cc2-n2cnnc2)C1 [Compound 69, (S)-7-(Cyclopropylamino)-5-((4-(3-(methylamino)piperidin-1-yl)-3-(4H-1,2,4-triazol-4-yl)phenyl)amino)pyrazolo[1,5-a]pyrimidine-3-carbonitrile]
fold decrease in MHV potency ([8]; relative to 68): 3 fold

O=c1nc(NO)ccn1[C@@H]1O[C@H](CO)[C@@H](O)[C@H]1O [EIDD-1931, reference compound]
IC50 ([8]; read-out: MHV IC50, positive control of the assay): 1200 nM
